Source: PubChem BioAssay (NCI)
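Grown in 96-well plates, cells were treated for 48 hours with each compound at five concentrations. Insufficient inhibition: endpoint recorded as highest concentration tested. GI50 is the concentration that inhibits growth by half. Definition used: TGI = concentration required for complete inhibition of growth.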

Legend:
Experiment in all cases: inhibition of tumour cell growth, NCI panel, 48 h
[1] = test system: DU-145 prostate
[2] = test system: EKVX NSCLC
[3] = test system: HCT-116 colon
[4] = test system: HL-60(TB) leukemia
[5] = test system: MDA-MB-435
[6] = test system: NCI-H23 lung
[7] = test system: OVCAR-3 ovarian
[8] = test system: OVCAR-8 ovarian
[9] = test system: SK-MEL-28 melanoma
[10] = test system: UO-31 renal

Compound | TGI [1] | TGI [2] | TGI [3] | TGI [4] | TGI [5] | TGI [6] | TGI [7] | TGI [8] | TGI [9] | TGI [10] | GI50 [1] | GI50 [2] | GI50 [3] | GI50 [4] | GI50 [5] | GI50 [6] | GI50 [7] | GI50 [8] | GI50 [9] | GI50 [10]
CC(C)(O)CO/N=C1\C(c2c(O)[nH]c3ccccc23)=Nc2ccccc21 | > 22.2 µM | > 36.3 µM | > 100 µM | 3.1 µM | > 42.3 µM | 12.7 µM | 5.95 µM | > 44.4 µM | > 46.2 µM | 5.09 µM | – | – | – | – | – | – | – | – | – | –
C/C=C1/CN2CCC34c5ccccc5N(C)C23C2CC1C4(C(=O)OC)C(O)O2 (configuration not stated) | > 100 µM | > 100 µM | > 100 µM | > 100 µM | > 100 µM | > 100 µM | > 100 µM | > 100 µM | > 100 µM | > 100 µM | – | – | – | – | – | – | – | – | – | –
CNS(=O)(=O)c1ccc2[nH]c(O)c(C3=Nc4ccccc4C3=O)c2c1 | > 100 µM | > 100 µM | > 100 µM | > 100 µM | > 100 µM | > 100 µM | > 100 µM | – | > 100 µM | > 100 µM | – | – | – | – | – | – | – | – | – | –
Cc1ccc([N+](=O)[O-])cc1S(=O)(=O)Nc1ccc(C2=NN(C(=O)c3ccccc3)C(c3cccs3)C2)cc1 (configuration not stated) | > 100 µM | 67.7 µM | > 100 µM | > 100 µM | > 100 µM | 61.7 µM | 45.5 µM | > 100 µM | > 100 µM | > 100 µM | – | – | – | – | – | – | – | – | – | –
N#CCCOCN(CO)c1nc(N(CO)COCCC#N)nc(N(CO)COCCC#N)n1 | – | 93.7 µM | 63.8 µM | 41.6 µM | – | 71.5 µM | 59.3 µM | 34.7 µM | 38.8 µM | 43.2 µM | – | – | – | – | – | – | – | – | – | –
NC(=O)Nc1ccc(C(=O)NCCCNC(=O)c2ccc(NC(N)=O)cc2)cc1 | > 100 µM | > 100 µM | > 100 µM | > 100 µM | > 100 µM | > 100 µM | – | > 100 µM | > 100 µM | > 100 µM | – | – | – | – | – | – | – | – | – | –
CCCC1=C(C(=O)OCC)C(c2ccccc2OC)C(C#N)=C(N)O1 (configuration not stated) | > 100 µM | > 100 µM | > 100 µM | > 100 µM | > 100 µM | > 100 µM | > 100 µM | > 100 µM | 79.4 µM | > 100 µM | 29.3 µM | > 100 µM | 31.8 µM | 33.7 µM | 46.3 µM | > 100 µM | 67.1 µM | 43.8 µM | 26.3 µM | 37.5 µM
Cc1c(NC(=O)c2cc([N+](=O)[O-])cc([N+](=O)[O-])c2)c(=O)n(-c2ccccc2)n1C | > 100 µM | – | > 100 µM | > 100 µM | > 100 µM | > 100 µM | > 100 µM | > 100 µM | > 100 µM | > 100 µM | – | – | – | – | – | – | – | – | – | –
C[C@H](N[C@H]1CCC[C@]1(O)C#Cc1ccc2c(c1)OCO2)c1ccccc1 | > 25 µM | > 25 µM | – | > 25 µM | > 25 µM | > 25 µM | – | > 25 µM | > 25 µM | > 25 µM | – | – | – | – | – | – | – | – | – | –
O=C(NCCNc1nccc(-c2c(-c3cccc(O)c3)nc3sccn23)n1)Nc1cccc(C(F)(F)F)c1 | 30 µM | 36.6 µM | 11.5 µM | 6.03 µM | 4.94 µM | 32.5 µM | 22.7 µM | 11 µM | – | 16.8 µM | 5.37 µM | 4.16 µM | 3.56 µM | 2.85 µM | 2.04 µM | 4.62 µM | 5.52 µM | 3.56 µM | 2.68 µM | 3.25 µM
COc1cc2c(cc1OC)C1Cc3cc(OC)c(OC)cc3C(C2)O1 | > 100 µM | > 100 µM | > 100 µM | – | > 100 µM | > 100 µM | > 100 µM | > 100 µM | > 100 µM | > 100 µM | – | – | – | – | – | – | – | – | – | –
COc1ccccc1/C=C/c1c(N)ncnc1Nc1cccc(Cl)c1 | > 100 µM | > 100 µM | 86.8 µM | 0.969 µM | 33.1 µM | 47 µM | 59.5 µM | > 100 µM | 36.4 µM | 57.1 µM | – | – | – | – | – | – | – | – | – | –
N#Cc1c(-c2cccc(Cl)c2)cc(-c2ccc(Cl)cc2)nc1N | > 100 µM | 45 µM | 34.1 µM | 77.2 µM | 37.6 µM | 38.2 µM | 63.9 µM | 70.7 µM | – | 27.5 µM | – | – | – | – | – | – | – | – | – | –
Cc1ccc2ccc3ccc(C)nc3c2n1 | > 100 µM | > 100 µM | > 44.7 µM | > 100 µM | > 100 µM | > 100 µM | > 100 µM | > 100 µM | > 100 µM | > 100 µM | – | – | – | – | – | – | – | – | – | –
COc1c(O)c(O)c2c(c1O)C(=O)c1cc(C)cc(O)c1C2=O | > 100 µM | > 100 µM | > 100 µM | > 100 µM | > 100 µM | > 100 µM | > 100 µM | > 83.3 µM | > 100 µM | > 100 µM | – | – | – | – | – | – | – | – | – | –
Cc1c2cc[n+](C)cc2c(C)c2c1[nH]c1ccc(Cl)cc12 | 30.5 µM | 14.1 µM | 32.2 µM | 21.5 µM | > 64.4 µM | 9.12 µM | 22.6 µM | 15.5 µM | 16.5 µM | 42.8 µM | – | – | – | – | – | – | – | – | – | –
C[C@@H](CO)C1=CC(C#C[Si](C)(C)C)N(C(=O)Oc2ccccc2)c2ccccc21 (some centres not stated) | 48.1 µM | 53.7 µM | 29 µM | 57.2 µM | 15.5 µM | 23.1 µM | 26.9 µM | 35 µM | 36.3 µM | 30.4 µM | – | – | – | – | – | – | – | – | – | –
CN=C(N)/N=C(\N)Nc1cc2ccccc2c2ccccc12 | 32.3 µM | 31.8 µM | 26 µM | 19.8 µM | 32.4 µM | 33.2 µM | 35.8 µM | 33.8 µM | 34.1 µM | 27.4 µM | – | – | – | – | – | – | – | – | – | –
CCOC(=O)C(=O)Nc1c(CC)cccc1C(C)CC (configuration not stated) | – | > 100 µM | > 100 µM | > 100 µM | – | > 100 µM | > 100 µM | > 100 µM | > 100 µM | > 100 µM | – | – | – | – | – | – | – | – | – | –
CSc1ccc(-c2cc(-c3nc4ccccc4[nH]3)nc(N)c2C#N)cc1 | 66.9 µM | > 100 µM | 42.7 µM | 48.9 µM | 47.2 µM | 99.5 µM | 43.1 µM | > 100 µM | 53.2 µM | – | – | – | – | – | – | – | – | – | – | –
c1ccc(CCN2CCOCC2)nc1 | > 100 µM | > 100 µM | > 100 µM | > 100 µM | > 100 µM | > 100 µM | > 100 µM | > 100 µM | > 100 µM | > 100 µM | – | – | – | – | – | – | – | – | – | –
